The source of these data is patent US20250215029A1 (Recludix Pharma, Inc., priority 2022, published 2025).

pIC50: −log10 of the molar value. Where two headings read alike, the source gives them in different places. Bounds are passed on as bounds.

In one experiment the target is T1, pY705-STAT3 in PBMC (Homo sapiens, UniProt P40763).
T1 construct: Cryopreserved Peripheral Blood Mononuclear Cells (PBMC) are from AllCells; host or cells: cryopreserved PBMC
Description: MSD-pSTAT-PBMC Assay (pSTAT3, IL-6 stimulated). Format: cell-based. As to conditions: compound 3 hrs, then 10 ng/mL IL-6 for 10 min, Table 115. In outline:
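Cells are preincubated with compound for 3 hrs, then stimulated for 10 min, IL-4 at 1 ng/mL driving STAT6 phosphorylation and IL-6 at 10 ng/mL driving STAT3. Phospho-STAT in lysates is quantified by MSD immunoassay, and IC50 is fitted after subtracting unstimulated wells.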

In a further experiment the target is T2, pY641-STAT6 in PBMC (Homo sapiens, UniProt P42226).
T2 construct: Cryopreserved Peripheral Blood Mononuclear Cells (PBMC) are from AllCells; host or cells: cryopreserved PBMC
T2 sequence (P42226 1-847): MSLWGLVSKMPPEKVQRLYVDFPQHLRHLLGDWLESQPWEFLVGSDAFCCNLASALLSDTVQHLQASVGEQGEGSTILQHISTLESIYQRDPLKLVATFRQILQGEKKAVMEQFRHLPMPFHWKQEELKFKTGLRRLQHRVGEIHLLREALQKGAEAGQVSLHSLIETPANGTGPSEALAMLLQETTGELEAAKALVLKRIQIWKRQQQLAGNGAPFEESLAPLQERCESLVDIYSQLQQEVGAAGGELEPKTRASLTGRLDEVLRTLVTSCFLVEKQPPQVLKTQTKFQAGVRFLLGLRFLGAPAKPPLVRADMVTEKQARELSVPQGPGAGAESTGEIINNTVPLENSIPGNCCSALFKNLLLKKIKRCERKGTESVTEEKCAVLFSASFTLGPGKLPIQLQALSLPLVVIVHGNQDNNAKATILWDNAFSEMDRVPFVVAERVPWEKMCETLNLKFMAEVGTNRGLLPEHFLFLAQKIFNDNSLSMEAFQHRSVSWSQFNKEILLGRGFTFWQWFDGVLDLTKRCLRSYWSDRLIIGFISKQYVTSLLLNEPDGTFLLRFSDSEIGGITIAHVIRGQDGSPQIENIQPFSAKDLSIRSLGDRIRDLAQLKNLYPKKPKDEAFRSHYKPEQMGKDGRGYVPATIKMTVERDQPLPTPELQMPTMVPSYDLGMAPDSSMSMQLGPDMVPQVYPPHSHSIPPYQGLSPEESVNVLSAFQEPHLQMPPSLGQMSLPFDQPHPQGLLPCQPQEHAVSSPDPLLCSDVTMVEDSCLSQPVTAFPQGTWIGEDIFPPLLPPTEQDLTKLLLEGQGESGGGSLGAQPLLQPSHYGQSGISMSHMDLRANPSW
The experiment is described as follows: MSD-pSTAT-PBMC Assay (pSTAT6, IL-4 stimulated). Format: cell-based. Particulars: STAT6, PBMC, compound 3 hrs, then 1 ng/mL IL-4 for 10 min; Table 115. In outline:
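MSD electrochemiluminescence read-out: total STAT captured, probed with anti-pY641-STAT6 or anti-pY705-STAT3. Human PBMC, 3 h compound pretreatment, 10 min stimulation (IL-4 1 ng/mL or IL-6 10 ng/mL). Unstimulated signal subtracted, DMSO-normalized, variable-slope IC50.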

T1 sequence (P40763 whole entry): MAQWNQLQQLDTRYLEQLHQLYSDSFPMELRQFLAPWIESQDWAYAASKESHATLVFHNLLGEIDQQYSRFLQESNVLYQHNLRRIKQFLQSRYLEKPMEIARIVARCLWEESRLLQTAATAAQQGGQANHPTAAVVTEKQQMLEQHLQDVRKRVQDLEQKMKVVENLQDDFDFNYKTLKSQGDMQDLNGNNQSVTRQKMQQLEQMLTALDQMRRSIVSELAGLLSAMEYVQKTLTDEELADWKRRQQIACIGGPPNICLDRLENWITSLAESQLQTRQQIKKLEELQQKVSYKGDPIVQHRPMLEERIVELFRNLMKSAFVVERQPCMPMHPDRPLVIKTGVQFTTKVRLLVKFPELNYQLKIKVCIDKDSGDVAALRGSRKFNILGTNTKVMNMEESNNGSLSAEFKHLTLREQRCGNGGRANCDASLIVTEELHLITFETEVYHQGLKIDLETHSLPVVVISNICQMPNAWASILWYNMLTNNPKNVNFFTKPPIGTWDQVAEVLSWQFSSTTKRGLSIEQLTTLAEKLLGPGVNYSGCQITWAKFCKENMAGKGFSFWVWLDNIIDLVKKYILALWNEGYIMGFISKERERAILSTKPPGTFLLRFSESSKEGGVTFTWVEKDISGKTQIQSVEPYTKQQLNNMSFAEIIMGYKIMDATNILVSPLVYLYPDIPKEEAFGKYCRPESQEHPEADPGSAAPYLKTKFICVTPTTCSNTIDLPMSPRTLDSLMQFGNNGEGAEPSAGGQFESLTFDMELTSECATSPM

As for `CCCOC(=O)[C@H](C)NP(=O)(Oc1ccccc1)[C@@H](F)c1ccc2sc(C(=O)N[C@H]3CCC[C@H]4CC[C@@H](C(=O)N5C[C@@H](c6ccccc6)[C@H](C#N)C56CC6)N4C3=O)cc2c1` (stereo partly drawn) [Compound 382, propyl (((R)-(2-(((3S,6S,9aS)-3-((6R,7S)-7-cyano-6-phenyl-4-azaspiro[2.4]heptane-4-carbonyl)-5-oxooctahydro-1H-pyrrolo[1,2-a]azepin-6-yl)carbamoyl)benzo [b]thiophen-5-yl)fluoromethyl) (phenoxy)phosphoryl)-L-alaninate], the pIC50 was less than 5.52 against pY705-STAT3 in PBMC (STAT3, PBMC) and more than 7.00 on pY641-STAT6 in PBMC.
For `CCCOC(=O)[C@H](C)NP(=O)(Oc1ccccc1)[C@H](F)c1ccc2sc(C(=O)N[C@H]3CCC[C@H]4CC[C@@H](C(=O)N5C[C@H](c6ccccc6)[C@@H](C#N)C56CC6)N4C3=O)cc2c1` (stereo partly drawn) [Compound 388, propyl (((S)-(2-(((3S,6S,9aS)-3-((6S,7R)-7-cyano-6-phenyl-4-azaspiro[2.4]heptane-4-carbonyl)-5-oxooctahydro-1H-pyrrolo[1,2-a]azepin-6-yl)carbamoyl)benzo [b]thiophen-5-yl)fluoromethyl) (phenoxy)phosphoryl)-L-alaninate], the pIC50 is less than 5.52 on pY705-STAT3 in PBMC (STAT3, PBMC) and more than 7.00 against pY641-STAT6 in PBMC.
Regarding `CCOC(=O)[C@H](C)NP(=O)(Cc1ccc2ccc(C(=O)N[C@H]3CCCC[C@H]4CC[C@@H](C(=O)N5CC(c6ccccc6)CC56CC6)N4C3=O)cc2c1)Oc1ccccc1` (stereo partly drawn) [Compound 396, ethyl (((7-(((3S,6S,10aS)-5-oxo-3-(6-phenyl-4-azaspiro[2.4]heptane-4-carbonyl)decahydropyrrolo[1,2-a]azocin-6-yl)carbamoyl)naphthalen-2-yl)methyl)(phenoxy)phosphoryl)-L-alaninate], the pIC50 on pY705-STAT3 in PBMC (PBMC, read-out: STAT3) is less than 5.52; at pY641-STAT6 in PBMC, 5.52 to 6.00.
On to `C[C@H](NP(=O)(Cc1ccc2ccc(C(=O)N[C@H]3CCCC[C@H]4CC[C@@H](C(=O)N5CC(c6ccccc6)CC56CC6)N4C3=O)cc2c1)Oc1ccccc1)C(=O)OCc1ccccc1` (stereo partly drawn) [Compound 397, benzyl (((7-(((3S,6S,10aS)-5-oxo-3-(6-phenyl-4-azaspiro[2.4]heptane-4-carbonyl)decahydropyrrolo[1,2-a]azocin-6-yl)carbamoyl)naphthalen-2-yl)methyl)(phenoxy)phosphoryl)-L-alaninate], for which the pIC50 on pY705-STAT3 in PBMC (PBMC, read-out: STAT3) was less than 5.52; against pY641-STAT6 in PBMC, less than 5.52.
As for `CCCOC(=O)[C@H](C)NP(=O)(Cc1ccc2ccc(C(=O)N[C@H]3CCCC[C@H]4CC[C@@H](C(=O)N5C[C@H](c6cc[nH]c(=O)c6)CC56CC6)N4C3=O)cc2c1)Oc1ccccc1` (stereo partly drawn) [Compound 402, propyl (((7-(((3S,6S,10aS)-5-oxo-3-((S)-6-(2-oxo-1,2-dihydropyridin-4-yl)-4-azaspiro[2.4]heptane-4-carbonyl)decahydropyrrolo[1,2-a]azocin-6-yl)carbamoyl)naphthalen-2-yl)methyl)(phenoxy)phosphoryl)-L-alaninate], the pIC50 on pY705-STAT3 in PBMC (PBMC, read-out: STAT3) was less than 5.52; against pY641-STAT6 in PBMC, 5.52 to 6.00.
On to `CCCOC(=O)[C@H](C)NP(=O)(Oc1ccccc1)C(F)(F)c1ccc2ccc(C(=O)N[C@H]3CCCC[C@H]4CC[C@@H](C(=O)N5CC(c6ccccc6)CC56CC6)N4C3=O)cc2c1` (stereo partly drawn) [Compound 403, propyl ((difluoro(7-(((3S,6S,10aS)-5-oxo-3-(6-phenyl-4-azaspiro[2.4]heptane-4-carbonyl)decahydropyrrolo[1,2-a]azocin-6-yl)carbamoyl)naphthalen-2-yl)methyl)(phenoxy)phosphoryl)-L-alaninate], for which the pIC50 at pY705-STAT3 in PBMC (PBMC, read-out: STAT3) is less than 5.52; at pY641-STAT6 in PBMC, 6.00 to 7.00.
In the case of `CCC(CC)COC(=O)[C@H](C)NP(=O)(Cc1ccc2ccc(C(=O)N[C@H]3CCCC[C@H]4CC[C@@H](C(=O)N5CC(c6ccccc6)CC56CC6)N4C3=O)cc2c1)Oc1ccccc1` (stereo partly drawn) [Compound 404, 2-ethylbutyl (((7-(((3S,6S,10aS)-5-oxo-3-(6-phenyl-4-azaspiro[2.4]heptane-4-carbonyl)decahydropyrrolo[1,2-a]azocin-6-yl)carbamoyl)naphthalen-2-yl)methyl)(phenoxy)phosphoryl)-L-alaninate], the pIC50 on pY705-STAT3 in PBMC (PBMC, read-out: STAT3) was less than 5.52; at pY641-STAT6 in PBMC, 5.52 to 6.00.
Turning to `CCCCOC(=O)[C@H](C)NP(=O)(Cc1ccc2ccc(C(=O)N[C@H]3CCCC[C@H]4CC[C@@H](C(=O)N5CC(c6ccccc6)CC56CC6)N4C3=O)cc2c1)Oc1ccccc1` (stereo partly drawn) [Compound 405, butyl (((7-(((3S,6S,10aS)-5-oxo-3-(6-phenyl-4-azaspiro[2.4]heptane-4-carbonyl)decahydropyrrolo[1,2-a]azocin-6-yl)carbamoyl)naphthalen-2-yl)methyl)(phenoxy)phosphoryl)-L-alaninate], the pIC50 was less than 5.52 on pY705-STAT3 in PBMC (PBMC, read-out: STAT3) and 5.52 to 6.00 on pY641-STAT6 in PBMC.
For `CCCCOC(=O)[C@H](C)NP(=O)(Oc1cccc2ccccc12)C(F)(F)c1ccc2ccc(C(=O)N[C@H]3CCCC[C@H]4CC[C@@H](C(=O)N5CC(c6ccccc6)CC56CC6)N4C3=O)cc2c1` (stereo partly drawn) [Compound 406, butyl ((difluoro(7-(((3S,6S,10aS)-5-oxo-3-(6-phenyl-4-azaspiro[2.4]heptane-4-carbonyl)decahydropyrrolo[1,2-a]azocin-6-yl)carbamoyl)naphthalen-2-yl)methyl) (naphthalen-1-yloxy)phosphoryl)-L-alaninate], in that order: less than 5.52 and 5.52 to 6.00.
Turning to `CCCCOC(=O)[C@H](C)NP(=O)(Oc1ccccc1)C(F)(F)c1ccc2ccc(C(=O)N[C@H]3CCCC[C@H]4CC[C@@H](C(=O)N5CC(c6ccccc6)CC56CC6)N4C3=O)cc2c1` (stereo partly drawn) [Compound 407, butyl ((difluoro(7-(((3S,6S,10aS)-5-oxo-3-(6-phenyl-4-azaspiro[2.4]heptane-4-carbonyl)decahydropyrrolo[1,2-a]azocin-6-yl)carbamoyl)naphthalen-2-yl)methyl)(phenoxy)phosphoryl)-L-alaninate], the pIC50 on pY705-STAT3 in PBMC (PBMC, read-out: STAT3) is less than 5.52; against pY641-STAT6 in PBMC, 5.52 to 6.00.
In the case of `CCCOC(=O)[C@H](C)NP(=O)(Cc1ccc2ccc(C(=O)N[C@H]3CCCC[C@H]4CC[C@@H](C(=O)N5C[C@@H](c6cc[nH]c(=O)c6)CC56CC6)N4C3=O)cc2c1)Oc1ccccc1` (stereo partly drawn) [Compound 409, propyl (((7-(((3S,6S,10aS)-5-oxo-3-((R)-6-(2-oxo-1,2-dihydropyridin-4-yl)-4-azaspiro[2.4]heptane-4-carbonyl)decahydropyrrolo[1,2-a]azocin-6-yl)carbamoyl)naphthalen-2-yl)methyl)(phenoxy)phosphoryl)-L-alaninate], the pIC50 at pY705-STAT3 in PBMC (PBMC, read-out: STAT3) was less than 5.52; on pY641-STAT6 in PBMC, 5.52 to 6.00.
For the compound `CC(C)COC(=O)[C@H](C)NP(=O)(Cc1ccc2ccc(C(=O)N[C@H]3CCCC[C@H]4CC[C@@H](C(=O)N5CC(c6ccccc6)CC56CC6)N4C3=O)cc2c1)Oc1ccccc1` (stereo partly drawn) [Compound 410, isobutyl (((7-(((3S,6S,10aS)-5-oxo-3-(6-phenyl-4-azaspiro[2.4]heptane-4-carbonyl)decahydropyrrolo[1,2-a]azocin-6-yl)carbamoyl)naphthalen-2-yl)methyl)(phenoxy)phosphoryl)-L-alaninate], the pIC50 on pY705-STAT3 in PBMC (PBMC, read-out: STAT3) was less than 5.52; against pY641-STAT6 in PBMC, less than 5.52.
